From article PMC8500670, “A selective WDR5 degrader inhibits acute myeloid leukemia in patient-derived mouse models” (Science translational medicine, 2021)

Legend:
CHK2 = biological target: T1, CHK2 (Homo sapiens, UniProt O96017); test: biochemical; set-up: kinase selectivity panel, single concentration, duplicate
T1 construct: gene CHEK2
Description: (§1) We next assessed selectivity of MS67 against 22 protein methyltransferases (table S2) and a broad panel of common drug targets including 45 kinases (table S3) and 44 G protein–coupled receptors (GPCR), ion channels, and transporters (table S4). […] We subsequently determined that MS67 had moderate binding affinity (Ki = 1.0 ± 0.8 μM) to Sigma 2 receptor (fig. S10).

Mnk2 = biological target: T2, Mnk2 (Homo sapiens, UniProt Q9HBH9); test: biochemical; set-up: kinase selectivity panel, single concentration, duplicate
T2 construct: gene MKNK2
Description: as §1

SGK = biological target: T3, SGK (Homo sapiens, UniProt O00141); test: biochemical; set-up: kinase selectivity panel, single concentration, duplicate
T3 construct: gene SGK1
Description: as §1

EphA3 = EphA3 (Homo sapiens, UniProt P29320); test: biochemical; set-up: kinase selectivity panel, single concentration, duplicate
Description: as §1

JAK3 = JAK3 (Homo sapiens, UniProt P52333); test: biochemical; set-up: kinase selectivity panel, single concentration, duplicate
Description: as §1

MAP4K4 = MAP4K4 (Homo sapiens, UniProt O95819); test: biochemical; set-up: kinase selectivity panel, single concentration, duplicate
Description: as §1

cSRC = biological target: T4, cSRC (Homo sapiens, UniProt P12931); test: biochemical; set-up: kinase selectivity panel, single concentration, duplicate
T4 construct: gene SRC
Description: as §1

JNK1α1 = biological target: T5, JNK1α1 (Homo sapiens, UniProt P45983); test: biochemical; set-up: kinase selectivity panel, single concentration, duplicate
T5 construct: gene MAPK8; isoform alpha1
Description: as §1

IRAK4 = IRAK4 (Homo sapiens, UniProt Q9NWZ3); test: biochemical; set-up: kinase selectivity panel, single concentration, duplicate
Description: as §1

MARK1 = MARK1 (Homo sapiens, UniProt Q9P0L2); test: biochemical; set-up: kinase selectivity panel, single concentration, duplicate
Description: as §1

KDR = KDR (Homo sapiens, UniProt P35968); test: biochemical; set-up: kinase selectivity panel, single concentration, duplicate
Description: as §1

Aurora-A = biological target: T6, Aurora-A (Homo sapiens, UniProt O14965); test: biochemical; set-up: kinase selectivity panel, single concentration, duplicate
T6 construct: gene AURKA
Description: as §1

GSK3β = biological target: T7, GSK3β (Homo sapiens, UniProt P49841); test: biochemical; set-up: kinase selectivity panel, single concentration, duplicate
T7 construct: gene GSK3B
Description: as §1

Lck = Lck (Homo sapiens, UniProt P06239); test: biochemical; set-up: kinase selectivity panel, single concentration, duplicate
Description: as §1

PKCβII = biological target: T8, PKCβII (Homo sapiens, UniProt P05771); test: biochemical; set-up: kinase selectivity panel, single concentration, duplicate
T8 construct: gene PRKCB; isoform beta II
Description: as §1

FGFR3 = FGFR3 (Homo sapiens, UniProt P22607); test: biochemical; set-up: kinase selectivity panel, single concentration, duplicate
Description: as §1

MAPK2 = biological target: T9, MAPK2 (Homo sapiens, UniProt P28482); test: biochemical; set-up: kinase selectivity panel, single concentration, duplicate
T9 construct: gene MAPK1
Description: as §1

MAPKAP-K2 = biological target: T10, MAPKAP-K2 (Homo sapiens, UniProt P49137); test: biochemical; set-up: kinase selectivity panel, single concentration, duplicate
T10 construct: gene MAPKAPK2
Description: as §1

PKA = biological target: T11, PKA (Homo sapiens, UniProt P17612); test: biochemical; set-up: kinase selectivity panel, single concentration, duplicate
T11 construct: gene PRKACA
Description: as §1

ROCK-I = biological target: T12, ROCK-I (Homo sapiens, UniProt Q13464); test: biochemical; set-up: kinase selectivity panel, single concentration, duplicate
T12 construct: gene ROCK1
Description: as §1

PDK1 = biological target: T13, PDK1 (Homo sapiens, UniProt O15530); test: biochemical; set-up: kinase selectivity panel, single concentration, duplicate
T13 construct: gene PDPK1
Description: as §1

CaMKIIα = biological target: T14, CaMKIIα (Homo sapiens, UniProt Q9UQM7); test: biochemical; set-up: kinase selectivity panel, single concentration, duplicate
T14 construct: gene CAMK2A
Description: as §1

TAO2 = biological target: T15, TAO2 (Homo sapiens, UniProt Q9UL54); test: biochemical; set-up: kinase selectivity panel, single concentration, duplicate
T15 construct: gene TAOK2
Description: as §1

FGFR1 = FGFR1 (Homo sapiens, UniProt P11362); test: biochemical; set-up: kinase selectivity panel, single concentration, duplicate
Description: as §1

EphB4 = EphB4 (Homo sapiens, UniProt P54760); test: biochemical; set-up: kinase selectivity panel, single concentration, duplicate
Description: as §1

EGFR = EGFR (Homo sapiens, UniProt P00533); test: biochemical; set-up: kinase selectivity panel, single concentration, duplicate
Description: as §1

Abl = biological target: T16, Abl (Homo sapiens, UniProt P00519); test: biochemical; set-up: kinase selectivity panel, single concentration, duplicate
T16 construct: gene ABL1
Description: as §1

NEK2 = NEK2 (Homo sapiens, UniProt P51955); test: biochemical; set-up: kinase selectivity panel, single concentration, duplicate
Description: as §1

von Hippel–Lindau (VHL) = von Hippel–Lindau (VHL) (Homo sapiens, UniProt P40337); test: ITC; […]-Å crystal structure of WDR5-MS67-VCB ternary complex; format: binding

T1 sequence (O96017 whole entry): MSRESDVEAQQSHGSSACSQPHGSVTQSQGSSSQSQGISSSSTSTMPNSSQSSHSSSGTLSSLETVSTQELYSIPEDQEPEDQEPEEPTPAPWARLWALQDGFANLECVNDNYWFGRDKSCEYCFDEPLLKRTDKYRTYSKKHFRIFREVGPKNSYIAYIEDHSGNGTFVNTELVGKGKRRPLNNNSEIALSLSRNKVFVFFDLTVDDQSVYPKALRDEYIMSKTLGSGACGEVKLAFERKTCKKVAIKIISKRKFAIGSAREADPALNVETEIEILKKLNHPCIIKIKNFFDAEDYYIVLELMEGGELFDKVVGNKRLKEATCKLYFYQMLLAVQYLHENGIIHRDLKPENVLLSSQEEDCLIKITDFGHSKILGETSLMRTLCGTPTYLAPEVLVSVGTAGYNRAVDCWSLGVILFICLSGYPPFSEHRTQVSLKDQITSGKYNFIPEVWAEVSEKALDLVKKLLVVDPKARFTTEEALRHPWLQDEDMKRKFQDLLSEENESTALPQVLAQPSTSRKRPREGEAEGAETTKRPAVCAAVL
MARK1, sequence (Q9P0L2 whole entry): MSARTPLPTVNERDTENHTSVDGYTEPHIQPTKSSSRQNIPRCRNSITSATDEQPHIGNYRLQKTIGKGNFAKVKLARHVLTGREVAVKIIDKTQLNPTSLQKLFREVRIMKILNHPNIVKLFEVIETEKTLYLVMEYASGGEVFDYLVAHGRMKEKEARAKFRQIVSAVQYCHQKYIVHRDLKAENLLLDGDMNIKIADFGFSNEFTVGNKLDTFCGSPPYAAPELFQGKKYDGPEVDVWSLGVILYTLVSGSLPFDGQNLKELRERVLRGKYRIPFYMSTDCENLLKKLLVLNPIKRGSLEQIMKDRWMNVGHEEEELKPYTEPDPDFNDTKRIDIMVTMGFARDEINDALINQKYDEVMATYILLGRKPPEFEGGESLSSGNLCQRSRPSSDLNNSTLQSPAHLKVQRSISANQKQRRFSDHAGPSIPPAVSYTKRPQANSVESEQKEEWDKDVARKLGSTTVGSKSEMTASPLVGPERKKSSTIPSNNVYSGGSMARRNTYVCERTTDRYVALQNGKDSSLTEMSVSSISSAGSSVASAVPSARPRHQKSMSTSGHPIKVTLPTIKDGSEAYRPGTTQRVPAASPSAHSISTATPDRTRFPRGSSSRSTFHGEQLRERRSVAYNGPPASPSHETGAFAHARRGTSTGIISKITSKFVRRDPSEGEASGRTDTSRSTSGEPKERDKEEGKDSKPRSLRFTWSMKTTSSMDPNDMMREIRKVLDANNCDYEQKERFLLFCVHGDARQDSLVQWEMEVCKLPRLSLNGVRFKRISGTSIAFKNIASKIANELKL
EphB4, sequence (P54760 whole entry): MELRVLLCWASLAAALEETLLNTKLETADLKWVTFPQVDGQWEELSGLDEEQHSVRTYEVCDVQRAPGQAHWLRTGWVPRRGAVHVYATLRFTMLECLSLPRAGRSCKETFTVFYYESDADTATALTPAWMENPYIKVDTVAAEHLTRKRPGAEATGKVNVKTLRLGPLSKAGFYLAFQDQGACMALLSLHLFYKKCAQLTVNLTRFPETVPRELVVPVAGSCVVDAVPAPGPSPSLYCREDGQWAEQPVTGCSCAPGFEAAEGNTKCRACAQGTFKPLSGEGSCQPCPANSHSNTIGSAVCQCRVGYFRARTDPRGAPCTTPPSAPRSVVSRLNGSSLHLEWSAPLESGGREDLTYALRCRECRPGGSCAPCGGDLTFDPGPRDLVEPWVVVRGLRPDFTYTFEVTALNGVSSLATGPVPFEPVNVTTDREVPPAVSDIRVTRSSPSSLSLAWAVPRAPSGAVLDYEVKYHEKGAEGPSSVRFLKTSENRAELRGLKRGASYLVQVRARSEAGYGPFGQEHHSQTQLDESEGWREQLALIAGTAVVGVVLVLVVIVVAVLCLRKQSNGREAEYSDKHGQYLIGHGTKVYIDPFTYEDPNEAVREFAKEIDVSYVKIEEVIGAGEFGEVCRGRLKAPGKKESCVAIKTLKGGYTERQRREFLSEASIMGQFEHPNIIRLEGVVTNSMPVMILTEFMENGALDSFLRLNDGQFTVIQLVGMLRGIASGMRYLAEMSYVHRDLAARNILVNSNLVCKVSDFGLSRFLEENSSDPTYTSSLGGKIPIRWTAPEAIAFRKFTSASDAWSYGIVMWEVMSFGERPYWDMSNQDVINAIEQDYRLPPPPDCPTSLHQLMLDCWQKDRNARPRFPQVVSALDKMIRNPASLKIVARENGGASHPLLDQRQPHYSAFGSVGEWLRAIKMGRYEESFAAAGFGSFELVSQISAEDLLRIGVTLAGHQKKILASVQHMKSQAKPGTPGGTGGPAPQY
T5 sequence (P45983 whole entry, canonical isoform): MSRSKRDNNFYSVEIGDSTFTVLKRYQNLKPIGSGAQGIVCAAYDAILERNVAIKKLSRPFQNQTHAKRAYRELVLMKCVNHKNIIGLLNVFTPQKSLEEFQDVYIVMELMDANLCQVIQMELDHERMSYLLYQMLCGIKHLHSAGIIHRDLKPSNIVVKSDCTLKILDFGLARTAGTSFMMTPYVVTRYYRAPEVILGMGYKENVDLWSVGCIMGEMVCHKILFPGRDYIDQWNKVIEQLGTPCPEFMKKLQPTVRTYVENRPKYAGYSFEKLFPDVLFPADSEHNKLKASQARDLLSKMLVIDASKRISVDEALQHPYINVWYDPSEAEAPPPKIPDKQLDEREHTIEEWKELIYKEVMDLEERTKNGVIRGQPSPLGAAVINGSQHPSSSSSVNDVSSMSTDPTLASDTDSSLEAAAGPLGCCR
T10 sequence (P49137 whole entry): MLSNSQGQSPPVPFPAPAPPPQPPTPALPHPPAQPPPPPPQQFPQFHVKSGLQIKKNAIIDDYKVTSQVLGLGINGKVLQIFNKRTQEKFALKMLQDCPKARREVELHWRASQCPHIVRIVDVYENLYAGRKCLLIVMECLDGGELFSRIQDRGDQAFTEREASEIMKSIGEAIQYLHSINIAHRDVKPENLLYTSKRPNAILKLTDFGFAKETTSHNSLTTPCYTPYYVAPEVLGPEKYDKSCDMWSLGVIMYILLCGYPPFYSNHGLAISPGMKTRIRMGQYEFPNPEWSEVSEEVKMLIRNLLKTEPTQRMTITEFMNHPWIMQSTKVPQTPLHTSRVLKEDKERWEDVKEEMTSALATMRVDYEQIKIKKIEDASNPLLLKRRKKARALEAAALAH
EphA3, sequence (P29320 whole entry): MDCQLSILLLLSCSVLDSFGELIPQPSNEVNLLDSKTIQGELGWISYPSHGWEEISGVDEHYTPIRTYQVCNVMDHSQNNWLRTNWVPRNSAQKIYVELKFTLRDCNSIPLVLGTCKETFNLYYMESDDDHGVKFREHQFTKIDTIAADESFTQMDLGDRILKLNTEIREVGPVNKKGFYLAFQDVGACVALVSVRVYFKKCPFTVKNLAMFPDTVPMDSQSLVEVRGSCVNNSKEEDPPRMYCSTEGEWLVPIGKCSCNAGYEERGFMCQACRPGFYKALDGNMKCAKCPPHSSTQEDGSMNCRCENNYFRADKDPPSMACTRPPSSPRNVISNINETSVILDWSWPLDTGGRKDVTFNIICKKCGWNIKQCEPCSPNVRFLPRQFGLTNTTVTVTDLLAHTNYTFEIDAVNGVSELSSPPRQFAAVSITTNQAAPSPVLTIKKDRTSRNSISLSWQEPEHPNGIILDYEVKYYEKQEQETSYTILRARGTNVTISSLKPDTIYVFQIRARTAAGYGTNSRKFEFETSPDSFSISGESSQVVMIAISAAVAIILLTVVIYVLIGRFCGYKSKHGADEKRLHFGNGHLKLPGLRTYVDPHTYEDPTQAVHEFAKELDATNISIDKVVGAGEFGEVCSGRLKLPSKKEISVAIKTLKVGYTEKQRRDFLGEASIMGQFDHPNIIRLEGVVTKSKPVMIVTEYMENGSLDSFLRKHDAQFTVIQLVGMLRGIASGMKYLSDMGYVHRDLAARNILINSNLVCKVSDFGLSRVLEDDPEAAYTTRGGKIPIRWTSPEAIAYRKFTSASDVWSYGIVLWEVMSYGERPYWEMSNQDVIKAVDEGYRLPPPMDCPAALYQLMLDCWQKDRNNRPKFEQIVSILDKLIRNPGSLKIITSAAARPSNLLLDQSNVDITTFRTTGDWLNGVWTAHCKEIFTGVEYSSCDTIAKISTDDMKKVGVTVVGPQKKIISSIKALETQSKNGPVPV
T2 sequence (Q9HBH9 whole entry): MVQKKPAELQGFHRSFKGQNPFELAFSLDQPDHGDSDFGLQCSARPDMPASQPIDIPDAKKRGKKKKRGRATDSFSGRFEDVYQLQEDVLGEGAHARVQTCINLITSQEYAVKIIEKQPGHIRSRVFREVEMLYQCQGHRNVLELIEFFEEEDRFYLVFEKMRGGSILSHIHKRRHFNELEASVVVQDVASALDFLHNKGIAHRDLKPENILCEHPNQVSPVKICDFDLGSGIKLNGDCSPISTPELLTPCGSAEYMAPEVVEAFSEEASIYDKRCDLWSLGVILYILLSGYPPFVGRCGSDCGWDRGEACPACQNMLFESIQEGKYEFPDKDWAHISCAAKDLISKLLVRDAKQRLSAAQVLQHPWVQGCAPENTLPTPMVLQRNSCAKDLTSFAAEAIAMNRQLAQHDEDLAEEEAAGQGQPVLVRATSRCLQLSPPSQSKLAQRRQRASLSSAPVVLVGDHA
T3 sequence (O00141 whole entry): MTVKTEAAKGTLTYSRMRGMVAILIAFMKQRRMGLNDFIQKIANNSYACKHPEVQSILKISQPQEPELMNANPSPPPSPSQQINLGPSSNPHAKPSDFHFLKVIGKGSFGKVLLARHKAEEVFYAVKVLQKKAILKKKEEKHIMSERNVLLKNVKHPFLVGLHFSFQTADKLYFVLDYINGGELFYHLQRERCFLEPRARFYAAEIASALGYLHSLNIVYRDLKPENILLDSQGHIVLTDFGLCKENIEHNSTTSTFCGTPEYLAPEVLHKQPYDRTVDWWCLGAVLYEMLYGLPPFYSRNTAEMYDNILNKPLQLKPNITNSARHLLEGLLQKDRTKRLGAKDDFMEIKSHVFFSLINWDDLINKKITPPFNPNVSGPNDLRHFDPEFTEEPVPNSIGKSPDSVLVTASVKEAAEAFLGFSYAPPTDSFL

Cc1ncsc1-c1ccc([C@H](C)NC(=O)[C@@H]2C[C@@H](O)CN2C(=O)[C@@H](NC(=O)CNC(=O)c2ccc(F)c(-c3ccc(N4C[C@@H](C)N(C)[C@@H](C)C4)c(NC(=O)c4c[nH]c(=O)cc4C(F)(F)F)c3)c2)C(C)(C)C)cc1 [MS67]
inhibition at 1 µM (CHK2): < 10%
inhibition at 1 µM (Mnk2): < 10%
inhibition at 1 µM (SGK): < 10%
inhibition at 1 µM (EphA3): < 10%
inhibition at 1 µM (JAK3): < 10%
inhibition at 1 µM (MAP4K4): < 10%
inhibition at 1 µM (cSRC): < 10%
inhibition at 1 µM (JNK1α1): < 10%
inhibition at 1 µM (IRAK4): < 10%
inhibition at 1 µM (MARK1): < 10%
inhibition at 1 µM (KDR): < 10%
inhibition at 1 µM (Aurora-A): < 10%
inhibition at 1 µM (GSK3β): < 10%
inhibition at 1 µM (Lck): < 10%
inhibition at 1 µM (PKCβII): < 10%
inhibition at 1 µM (FGFR3): < 10%
inhibition at 1 µM (MAPK2): < 10%
inhibition at 1 µM (MAPKAP-K2): < 10%
inhibition at 1 µM (PKA): < 10%
inhibition at 1 µM (ROCK-I): < 10%
inhibition at 1 µM (PDK1): < 10%
inhibition at 1 µM (CaMKIIα): < 10%
inhibition at 1 µM (TAO2): < 10%
inhibition at 1 µM (FGFR1): < 10%
inhibition at 1 µM (EphB4): < 10%
inhibition at 1 µM (EGFR): < 10%
inhibition at 1 µM (Abl): < 10%
inhibition at 1 µM (NEK2): < 10%
Kd (von Hippel–Lindau (VHL)): 0.14 ± 0.0072 µM
